The test system of assay [1] is influenza A/H3N2 NA D151A. The note with it: ref [4] of supplement (Sheu 2008); cited from earlier work.
Assay [2] relates to influenza A/H3N2 NA E41G. The following applies: ref [2] of supplement (Monto 2006); cited from earlier work.
The subject of assay [3] is influenza A/H3N2 NA I222T. The note with it: cited from earlier work.
In assay [4] the test system is influenza A/H3N2 NA E119V+I222L. The following applies: ref [3] of supplement (Nguyen 2012); cited from earlier work.
The subject of assay [5] is influenza A/H3N2 NA E276D. The following applies: ref [3] of supplement (Nguyen 2012); cited from earlier work.
The subject of assay [6] is influenza A/H3N2 NA R224K. The following applies: ref [3] of supplement (Nguyen 2012); cited from earlier work.
Assay [7] relates to influenza A/H3N2 NA E119D. The following applies: ref [3] of supplement (Nguyen 2012); cited from earlier work.
Assay [8] relates to influenza A/H3N2 NA R371K. The note with it: ref [3] of supplement (Nguyen 2012); cited from earlier work.
Assay [9] relates to influenza A/H3N2 NA R292K. The following applies: ref [3] of supplement (Nguyen 2012); cited from earlier work.
For assay [10], the system named is influenza A/H3N2 NA E119I. The note with it: ref [3] of supplement (Nguyen 2012); cited from earlier work.
Assay [11] deals with influenza A/H3N2 NA D151V. The following applies: ref [4] of supplement (Sheu 2008); cited from earlier work.
Assay [12] concerns influenza A/H3N2 NA E119V+I222V. The following applies: ref [3] of supplement (Nguyen 2012); cited from earlier work.
Assay [13] relates to influenza A/H3N2 NA N294S. The following applies: ref [3] of supplement (Nguyen 2012); cited from earlier work.
Assay [14] concerns influenza A/H3N2 NA D151E. The following applies: ref [3] of supplement (Nguyen 2012); cited from earlier work.
Assay [15] concerns influenza A/H3N2 NA E119V. The following applies: ref [3] of supplement (Nguyen 2012); cited from earlier work.
Assay [16] concerns influenza A/H3N2 NA Q136K. The note with it: ref [3] of supplement (Nguyen 2012); cited from earlier work.
In assay [17] the test system is influenza A/H3N2 NA Q226H. The following applies: ref [2] of supplement (Monto 2006); cited from earlier work.
Assay [18] addresses influenza A/H3N2 NA, D93G, Y155F, D251V mutations in combination (Influenza A virus (H3N2), UniProt V9SU56, D251V/D93G/Y155F). The assay is classed as biochemical. The following applies: read-out: mean drug concentration required to inhibit 50% NA activity.
Assay [19] concerns the target influenza A/H3N2 NA, D93G single mutation (Influenza A virus (H3N2), UniProt V9SU56, D93G). The assay is classed as biochemical. The following applies: read-out: mean drug concentration required to inhibit 50% NA activity.
In assay [20] the target is influenza A/H3N2 NA, D93G, D251N mutations in combination (Influenza A virus (H3N2), UniProt V9SU56, D251N/D93G). The class given is biochemical. The following applies: read-out: mean drug concentration required to inhibit 50% NA activity.

`CCOC(=O)C1=C[C@@H](OC(CC)CC)[C@H](NC(C)=O)[C@@H](N)C1` [Oseltamivir, oseltamivir]: the “Drug susceptibility by NA inhibition assays (WHO class)” value in assay [1] is recorded as “S (<10-fold increase as susceptible (“S”))”; in assay [2], “DS (10–100-fold increase as decreased susceptibility (“DS”))”; in [3] (I222T, ref [5] of supplement (Pizzorno 2014)), “DS (10–100-fold increase as decreased susceptibility (“DS”))”; in [4] it was “R (>100-fold increase as resistant (“R”))”; in assay [5], “DS (10–100-fold increase as decreased susceptibility (“DS”))”; in assay [6], “R (>100-fold increase as resistant (“R”))”. The “Drug susceptibility by NA inhibition assays (WHO class)” value in [7] was “S (<10-fold increase as susceptible (“S”))”; in assay [8], “DS (10–100-fold increase as decreased susceptibility (“DS”))”; in [9], “R (>100-fold increase as resistant (“R”))”; in [10] it was “R (>100-fold increase as resistant (“R”))”; in assay [11] it was “S (<10-fold increase as susceptible (“S”))”; in [12] it was “R (>100-fold increase as resistant (“R”))”. In addition, the “Drug susceptibility by NA inhibition assays (WHO class)” value in assay [13] is recorded as “R (>100-fold increase as resistant (“R”))”; in [14] it was “DS (10–100-fold increase as decreased susceptibility (“DS”))”; in assay [15] it was “DS/R”; in [16], “S (<10-fold increase as susceptible (“S”))”; in assay [17], “DS (10–100-fold increase as decreased susceptibility (“DS”))”. For the same compound, in assay [3] (I222T in influenza A/H3N2), the “increase in IC50 compared to that of the wild-type” value is reported as 16 fold.

For the compound `CCC(CC)[C@H](NC(C)=O)[C@@H]1[C@H](O)[C@@H](C(=O)O)C[C@H]1N=C(N)N` [Peramivir, peramivir], the IC50 was determined as 0.2 ± 0.1 nM in [18], 0.2 ± 0.1 nM in [19] and 0.4 nM in assay [20]. Further, the “Drug susceptibility by NA inhibition assays (WHO class)” value is listed as “S (<10-fold increase as susceptible (“S”))” in [7]; “DS/R” in assay [9]; “S (<10-fold increase as susceptible (“S”))” in assay [10]; “S (<10-fold increase as susceptible (“S”))” in [12]; “S (<10-fold increase as susceptible (“S”))” in assay [13]; “S (<10-fold increase as susceptible (“S”))” in [15]. Also, the “IC50 fold-change compared to wildtype” value is 2 fold in [7]; 14-719 fold in assay [9]; 3 fold in [10]; 7 fold in [12]; 1 fold in assay [13]; 1-3 fold in assay [15].

In the case of `CC(=O)N[C@H]1[C@H]([C@H](O)[C@H](O)CO)OC(C(=O)O)=C[C@@H]1N=C(N)N` [Zanamivir, zanamivir], the “Drug susceptibility by NA inhibition assays (WHO class)” value in assay [1] is “DS (10–100-fold increase as decreased susceptibility (“DS”))”; in assay [2], “S (<10-fold increase as susceptible (“S”))”; in [4] it was “S (<10-fold increase as susceptible (“S”))”; in assay [5], “R (>100-fold increase as resistant (“R”))”; in assay [6] it was “DS (10–100-fold increase as decreased susceptibility (“DS”))”; in assay [7], “DS (10–100-fold increase as decreased susceptibility (“DS”))”. The “Drug susceptibility by NA inhibition assays (WHO class)” value in [8] was “DS (10–100-fold increase as decreased susceptibility (“DS”))”; in [9], “S/DS/R”; in assay [10], “DS (10–100-fold increase as decreased susceptibility (“DS”))”; in assay [11] it was “DS (10–100-fold increase as decreased susceptibility (“DS”))”; in assay [12], “S (<10-fold increase as susceptible (“S”))”; in assay [13], “S (<10-fold increase as susceptible (“S”))”. For the same compound, the “Drug susceptibility by NA inhibition assays (WHO class)” value is “S (<10-fold increase as susceptible (“S”))” in assay [14], “S (<10-fold increase as susceptible (“S”))” in assay [15], “DS (10–100-fold increase as decreased susceptibility (“DS”))” in assay [16] and “S (<10-fold increase as susceptible (“S”))” in assay [17].

(Values after paper PMC4311985, “Molecular Surveillance of Antiviral Drug Resistance of Influenza A/H3N2 Virus in Singapore, 2009-2013” (PLoS ONE, 2015).)
